Data as given in ChEMBL document CHEMBL1201862, “PubChem BioAssay data set” (2004).
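Grown in 96-well plates, cells were treated for 48 hours with each compound at five concentrations. Insufficient inhibition: endpoint recorded as highest concentration tested. At the GI50, growth is halved.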 The source made the active and inactive calls. Rule as the data show it: active = GI50 up to about 1.1 µM and inactive = higher.

How the values were obtained:
Assay in all cases: DTP human tumour cell line panel, 48 h
A549 = tested on: A549
ACHN = tested on: ACHN
DLD-1 = tested on: DLD-1
DMS-114 = tested on: DMS-114
DMS-273 = tested on: DMS-273
HCT-116 = tested on: HCT-116
HCT-15 = tested on: HCT-15
HOP-18 = tested on: HOP-18
HT-29 = tested on: HT-29
IGROV-1 = tested on: IGROV-1
KM12 = tested on: KM12
LOX IMVI = tested on: LOX IMVI
LXFL 529 = tested on: LXFL 529
M19-MEL = tested on: M19-MEL
MOLT-4 = tested on: MOLT-4
Malme-3M = tested on: Malme-3M
NCI-H226 = tested on: NCI-H226
NCI-H23 = tested on: NCI-H23
NCI-H460 = tested on: NCI-H460
NCI-H522 = tested on: NCI-H522
OVCAR-3 = tested on: OVCAR-3
OVCAR-4 = tested on: OVCAR-4
OVCAR-8 = tested on: OVCAR-8
RXF 393 = tested on: RXF 393
SF-268 = tested on: SF-268
SF-295 = tested on: SF-295
SF-539 = tested on: SF-539
SK-MEL-28 = tested on: SK-MEL-28
SK-MEL-2 = tested on: SK-MEL-2
SK-MEL-5 = tested on: SK-MEL-5
SK-OV-3 = tested on: SK-OV-3
SN12C = tested on: SN12C
SNB-19 = tested on: SNB-19
SNB-75 = tested on: SNB-75
SNB-78 = tested on: SNB-78
TK-10 = tested on: TK-10
UACC-257 = tested on: UACC-257
UACC-62 = tested on: UACC-62
UO-31 = tested on: UO-31
786-0 = tested on: 786-0
A498 = tested on: A498
CAKI-1 = tested on: CAKI-1
COLO 205 = tested on: COLO 205
EKVX = tested on: EKVX
HCC 2998 = tested on: HCC 2998
HOP-62 = tested on: HOP-62
HOP-92 = tested on: HOP-92
K562 = tested on: K562
KM-20L2 = tested on: KM-20L2
M14 = tested on: M14
OVCAR-5 = tested on: OVCAR-5
RPMI-8226 = tested on: RPMI-8226
SW-620 = tested on: SW-620
U-251 = tested on: U-251
CCRF-CEM = tested on: CCRF-CEM
HL-60 = tested on: HL-60
SR = tested on: SR
XF498 = tested on: XF498

Measured: GI50

CC(=O)Oc1cc(OC(C)=O)c2c(=O)c3ccccc3n(C)c2c1
42.1 µM: HCT-15
inactive: A549 41.3 µM | ACHN 22 µM | DLD-1 21.9 µM | DMS-114 18.4 µM | DMS-273 16 µM | HCT-116 26.1 µM | HOP-18 14 µM | HT-29 23.7 µM | IGROV-1 14.7 µM | KM12 33.2 µM | LOX IMVI 11.5 µM | LXFL 529 34.8 µM | M19-MEL 21.6 µM | MOLT-4 38 µM | Malme-3M 25.7 µM | NCI-H226 17.1 µM | NCI-H23 22.6 µM | NCI-H460 19.4 µM | NCI-H522 10.4 µM | OVCAR-3 56.9 µM | OVCAR-4 48.9 µM | OVCAR-8 16 µM | RXF 393 34 µM | SF-268 23.2 µM | SF-295 13.1 µM | SF-539 18.7 µM | SK-MEL-28 25.4 µM | SK-MEL-2 33 µM | SK-MEL-5 15.1 µM | SK-OV-3 25.2 µM | SN12C 25.5 µM | SNB-19 33.7 µM | SNB-75 27.4 µM | SNB-78 31.6 µM | TK-10 29.8 µM | UACC-257 30.1 µM | UACC-62 31.8 µM | UO-31 21.2 µM

CCN(CC)CCNC(=O)c1cccc2nc3ccccc3nc12
6.53 µM: HCT-15
inactive: 786-0 27 µM | A498 11.7 µM | A549 8.05 µM | ACHN 5.06 µM | CAKI-1 > 39.3 µM | COLO 205 3.78 µM | DLD-1 > 26.7 µM | DMS-114 7.85 µM | DMS-273 7.26 µM | EKVX 23.4 µM | HCC 2998 14.2 µM | HCT-116 4.16 µM | HOP-18 > 26.4 µM | HOP-62 13.2 µM | HOP-92 38.4 µM | HT-29 4.55 µM | IGROV-1 38.3 µM | K562 1.38 µM | KM-20L2 13.6 µM | KM12 10.3 µM | LOX IMVI 4.4 µM | LXFL 529 16.9 µM | M14 18.5 µM | MOLT-4 4.91 µM | Malme-3M 11.4 µM | NCI-H226 8.15 µM | NCI-H23 13.7 µM | NCI-H522 28.5 µM | OVCAR-3 8.34 µM | OVCAR-4 12.8 µM | OVCAR-5 15.8 µM | OVCAR-8 14 µM | RPMI-8226 7.64 µM | RXF 393 12.4 µM | SF-295 11 µM | SF-539 8.45 µM | SK-MEL-28 17.5 µM | SK-MEL-2 13.3 µM | SK-MEL-5 > 46 µM | SK-OV-3 > 49 µM | SN12C 10.3 µM | SNB-19 21.2 µM | SNB-75 > 36.8 µM | SNB-78 21.4 µM | SW-620 5.48 µM | TK-10 27.2 µM | U-251 16.9 µM | UACC-257 7.26 µM | UACC-62 18.9 µM | UO-31 > 24.8 µM
active: SF-268 0.318 µM

Cc1cc(O)nc(CNC(=O)c2cccc3ccccc23)n1
> 100 µM: HCT-15
inactive: 786-0 > 100 µM | A498 > 100 µM | A549 > 100 µM | ACHN > 100 µM | CAKI-1 > 100 µM | CCRF-CEM > 100 µM | COLO 205 > 100 µM | DLD-1 > 100 µM | DMS-273 > 100 µM | EKVX > 100 µM | HCC 2998 > 100 µM | HCT-116 > 100 µM | HL-60 > 100 µM | HOP-62 > 100 µM | HOP-92 > 100 µM | HT-29 > 100 µM | IGROV-1 > 100 µM | K562 > 100 µM | KM-20L2 > 100 µM | LOX IMVI > 100 µM | LXFL 529 > 100 µM | M14 > 100 µM | M19-MEL > 100 µM | MOLT-4 > 100 µM | Malme-3M > 100 µM | NCI-H226 > 100 µM | NCI-H23 > 100 µM | NCI-H460 > 100 µM | NCI-H522 > 100 µM | OVCAR-3 > 100 µM | OVCAR-4 > 100 µM | OVCAR-8 > 100 µM | RXF 393 > 100 µM | SF-268 > 100 µM | SF-295 > 100 µM | SF-539 > 100 µM | SK-MEL-28 > 100 µM | SK-MEL-5 > 100 µM | SK-OV-3 > 100 µM | SN12C > 100 µM | SNB-19 > 100 µM | SNB-75 > 100 µM | SNB-78 > 100 µM | SR > 100 µM | SW-620 > 100 µM | TK-10 > 100 µM | U-251 > 100 µM | UACC-257 > 100 µM | UACC-62 > 100 µM | UO-31 > 100 µM | XF498 > 100 µM

COc1cccc2c1C(=O)C1(O)CCCCC21 (configuration not stated)
> 100 µM: HCT-15
inactive: 786-0 > 100 µM | A498 > 100 µM | A549 > 100 µM | ACHN > 100 µM | CAKI-1 > 100 µM | CCRF-CEM > 100 µM | COLO 205 > 100 µM | DLD-1 > 100 µM | DMS-114 > 100 µM | DMS-273 > 100 µM | HCC 2998 > 100 µM | HCT-116 > 100 µM | HL-60 > 100 µM | HOP-18 > 100 µM | HOP-62 > 100 µM | HT-29 > 100 µM | IGROV-1 > 100 µM | K562 > 100 µM | KM-20L2 > 100 µM | KM12 > 100 µM | LOX IMVI > 100 µM | LXFL 529 > 100 µM | M14 > 100 µM | M19-MEL > 100 µM | MOLT-4 > 100 µM | Malme-3M > 100 µM | NCI-H226 > 100 µM | NCI-H23 > 100 µM | NCI-H460 > 100 µM | NCI-H522 > 100 µM | OVCAR-3 > 100 µM | OVCAR-4 > 100 µM | OVCAR-5 > 100 µM | OVCAR-8 > 100 µM | RPMI-8226 > 100 µM | RXF 393 > 100 µM | SF-268 > 100 µM | SF-295 > 100 µM | SF-539 > 100 µM | SK-MEL-28 > 100 µM | SK-MEL-2 > 100 µM | SK-MEL-5 > 100 µM | SK-OV-3 > 100 µM | SN12C > 100 µM | SNB-19 > 100 µM | SNB-75 > 100 µM | SNB-78 > 100 µM | SW-620 > 100 µM | TK-10 > 100 µM | U-251 > 100 µM | UACC-257 > 100 µM | UACC-62 > 100 µM | UO-31 > 100 µM
